Data taken from patent US11999699B2, “Substituted pyrazole amides” (GRUENENTHAL GMBH, priority 2021, dated 2024).

Target: T1, human NaV1.8 (Homo sapiens, UniProt Q9Y5Y9)
T1 construct: The following NaV1.8 recombinant cell line was used for recordings: HEK-NaV1.8 (NM 006514.1); expressed in transfected cells; host or cells: HEK (recombinant cell line HEK-NaV1.8)
Assay: Electrophysiology: automated whole-cell voltage-clamp (patch clamp, Qube384) recordings of sodium currents in HEK-NaV1.8 cells
Format: cell-based
Settings: potency data either taken from inactivated or resting state, read-out: Potency category (human NaV1.8 IC50)
Procedure, shortened: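 Automated whole-cell patch clamp at room temperature on HEK cells expressing human NaV1.8, with 0.3% DMSO vehicle controls. State-dependent protocol from −120 mV tested resting (P1) and half-inactivated (P2, 4 s at V1/2) channels, plus 40-pulse trains at 10 and 20 Hz. Values after ~12 min compound exposure were normalised to baseline and corrected for vehicle run-down; IC50 from a 4-parameter logistic fit, taken from inactivated or resting state.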

T1 sequence (Q9Y5Y9 whole entry): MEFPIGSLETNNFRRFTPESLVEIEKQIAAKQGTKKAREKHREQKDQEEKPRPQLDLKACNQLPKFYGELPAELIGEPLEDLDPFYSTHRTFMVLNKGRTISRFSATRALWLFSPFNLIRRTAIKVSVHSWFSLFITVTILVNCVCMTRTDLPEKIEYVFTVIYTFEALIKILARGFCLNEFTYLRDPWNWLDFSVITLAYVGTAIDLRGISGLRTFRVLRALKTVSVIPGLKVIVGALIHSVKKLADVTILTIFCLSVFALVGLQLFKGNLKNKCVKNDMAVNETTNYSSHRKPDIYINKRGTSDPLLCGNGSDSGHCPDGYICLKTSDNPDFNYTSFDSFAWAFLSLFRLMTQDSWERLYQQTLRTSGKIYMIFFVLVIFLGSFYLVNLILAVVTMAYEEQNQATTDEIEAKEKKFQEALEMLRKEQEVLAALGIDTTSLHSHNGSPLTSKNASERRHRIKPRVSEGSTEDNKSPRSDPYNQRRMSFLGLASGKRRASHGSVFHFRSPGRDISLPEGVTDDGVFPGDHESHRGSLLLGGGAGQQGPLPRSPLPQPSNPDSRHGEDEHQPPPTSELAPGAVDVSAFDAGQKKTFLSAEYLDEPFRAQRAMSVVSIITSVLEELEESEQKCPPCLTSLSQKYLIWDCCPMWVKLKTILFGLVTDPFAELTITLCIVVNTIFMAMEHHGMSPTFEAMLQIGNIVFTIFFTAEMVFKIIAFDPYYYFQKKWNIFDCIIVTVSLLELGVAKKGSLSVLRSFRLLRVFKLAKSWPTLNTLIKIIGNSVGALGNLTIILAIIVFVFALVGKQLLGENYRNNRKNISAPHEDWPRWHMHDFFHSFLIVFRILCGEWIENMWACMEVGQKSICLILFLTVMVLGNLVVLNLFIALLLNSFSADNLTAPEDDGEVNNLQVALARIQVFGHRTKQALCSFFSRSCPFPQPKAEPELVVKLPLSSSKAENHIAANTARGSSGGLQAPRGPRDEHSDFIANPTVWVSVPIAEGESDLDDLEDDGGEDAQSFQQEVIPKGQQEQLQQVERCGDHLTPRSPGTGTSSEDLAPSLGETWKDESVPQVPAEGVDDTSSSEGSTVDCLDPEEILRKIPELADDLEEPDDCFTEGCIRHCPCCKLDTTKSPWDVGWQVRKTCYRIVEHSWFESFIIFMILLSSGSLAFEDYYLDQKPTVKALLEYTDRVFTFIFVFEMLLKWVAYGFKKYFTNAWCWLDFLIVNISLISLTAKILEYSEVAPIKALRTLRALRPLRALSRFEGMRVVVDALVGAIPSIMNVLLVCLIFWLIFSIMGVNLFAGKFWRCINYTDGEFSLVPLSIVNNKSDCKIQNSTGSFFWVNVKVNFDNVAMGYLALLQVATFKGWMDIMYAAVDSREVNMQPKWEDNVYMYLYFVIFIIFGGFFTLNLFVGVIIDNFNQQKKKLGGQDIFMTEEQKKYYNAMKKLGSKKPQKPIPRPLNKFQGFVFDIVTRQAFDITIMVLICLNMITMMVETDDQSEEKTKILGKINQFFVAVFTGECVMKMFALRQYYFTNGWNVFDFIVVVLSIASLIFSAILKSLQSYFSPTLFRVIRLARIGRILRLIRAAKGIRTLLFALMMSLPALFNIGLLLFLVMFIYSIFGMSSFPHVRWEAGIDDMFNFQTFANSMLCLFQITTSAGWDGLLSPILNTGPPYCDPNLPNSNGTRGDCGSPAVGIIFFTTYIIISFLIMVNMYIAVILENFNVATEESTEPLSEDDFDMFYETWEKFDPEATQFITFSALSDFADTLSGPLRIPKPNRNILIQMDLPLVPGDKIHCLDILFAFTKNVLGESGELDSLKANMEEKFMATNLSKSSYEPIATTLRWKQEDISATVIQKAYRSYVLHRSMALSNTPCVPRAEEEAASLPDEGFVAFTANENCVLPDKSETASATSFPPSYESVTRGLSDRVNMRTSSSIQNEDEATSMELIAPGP
T1 sequence (Q9NY72 23-215 partner): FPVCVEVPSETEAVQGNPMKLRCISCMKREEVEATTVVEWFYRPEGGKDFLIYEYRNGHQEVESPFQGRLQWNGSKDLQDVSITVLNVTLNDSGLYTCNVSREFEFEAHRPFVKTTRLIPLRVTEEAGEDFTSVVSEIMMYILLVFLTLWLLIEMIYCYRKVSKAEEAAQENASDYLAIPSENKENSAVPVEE

SMILES | IC50 [nM]
NC(=O)c1cc(NC(=O)c2c(C(F)(F)F)cnn2CC2CCC(F)(F)CC2)ccc1F [SC-39, N-(3-carbamoyl-4-fluorophenyl)-2-[(4,4-difluorocyclohexyl)methyl]-4-(trifluoromethyl)pyrazole-3-carboxamide] | 100 to 1000
NC(=O)c1cccc(NC(=O)c2c(C(F)(F)F)cnn2CC2CCC(F)(F)CC2)c1 [SC-41, N-(3-carbamoylphenyl)-2-[(4,4-difluorocyclohexyl)methyl]-4-(trifluoromethyl)pyrazole-3-carboxamide] | 100 to 1000
CS(=O)(=O)c1cc(F)cc(NC(=O)c2c(C(F)(F)F)cnn2CC2CCC(F)(F)CC2)c1 [SC-42, 2-[(4,4-difluorocyclohexyl)methyl]-N-(3-fluoro-5-methylsulfonylphenyl)-4-(trifluoromethyl)pyrazole-3-carboxamide] | 1000 to 10000
NS(=O)(=O)c1cccc(NC(=O)c2c(C(F)(F)F)cnn2CC2CCC(F)(F)CC2)c1 [SC-43, 2-[(4,4-difluorocyclohexyl)methyl]-N-(3-sulfamoylphenyl)-4-(trifluoromethyl)pyrazole-3-carboxamide] | 100 to 1000
Cc1nn(CC2CCC(F)(F)CC2)c(C(=O)Nc2cccc(S(C)(=O)=O)c2)c1C [SC-44, 2-[(4,4-difluorocyclohexyl)methyl]-4,5-dimethyl-N-(3-methylsulfonylphenyl)pyrazole-3-carboxamide] | 100 to 1000
Cc1nn(CC2CCOCC2)c(C(=O)Nc2cccc(S(N)(=O)=O)c2)c1C [SC-45, 3,4-dimethyl-N-(3-sulfamoylphenyl)-1-((tetrahydro-2H-pyran-4-yl)methyl)-1H-pyrazole-5-carboxamide] | 1000 to 10000
CS(=O)(=O)n1cc(NC(=O)c2c(C(F)(F)F)cnn2CC2CCCCC2)c2cccnc21 [SC-53, 1-(cyclohexylmethyl)-N-(1-(methylsulfonyl)-1H-pyrrolo[2,3-b]pyridin-3-yl)-4-(trifluoromethyl)-1H-pyrazole-5-carboxamide] | ≤ 100
Cc1nn(CC2CCC(F)(F)CC2)c(C(=O)Nc2ccnc(C(N)=O)c2)c1C(F)(F)F [SC-84, 4-(1-((4,4-difluorocyclohexyl)methyl)-3-methyl-4-(trifluoromethyl)-1H-pyrazole-5-carboxamido)picolinamide] | ≤ 100
CC1CC(Cn2nc(C3CC3)c(C(F)(F)F)c2C(=O)Nc2ccnc(C(N)=O)c2)CCO1 (centres unmarked) [SC-135, 4-(3-cyclopropyl-1-((2-methyltetraliydro-2H-pyran-4-yl)methyl)-4-(trifluoromethyl)-1H-pyrazole-5-carboxamido)picolinamide] | ≤ 100
NC(=O)c1cc(NC(=O)c2c(C(F)(F)F)c(C3CC3)nn2CC2CCCCO2)ccc1F (centres unmarked) [SC-140, N-(3-carbamoyl-4-fluorophenyl)-3-cyclopropyl-1-((tetrahydro-2H-pyran-2-yl)methyl)-4-(trifluoromethyl)-1H-pyrazole-5-carboxamide] | ≤ 100
NC(=O)c1cc(NC(=O)c2c(C(F)(F)F)c(C(F)F)nn2CC2CC(F)(F)C2)ccc1F [SC-141, N-(3-carbamoyl-4-fluorophenyl)-1-((3,3-difluorocyclobutyl)methyl)-3-(difluoromethyl)-4-(trifluoromethyl)-1H-pyrazole-5-carboxamide] | ≤ 100
CC1CCCC(Cn2nc(C3CC3)c(C(F)(F)F)c2C(=O)Nc2ccnc(C(N)=O)c2)O1 (centres unmarked) [SC-143, 4-(3-cyclopropyl-1-((6-methyltetrahydro-2H-pyran-2-yl)methyl)-4-(trifluoromethyl)-1H-pyrazole-5-carboxamido)picolinamide] | ≤ 100
NC(=O)c1cc(NC(=O)c2c(C(F)(F)F)c(C3CC3)nn2CC2CC(F)(F)C2)ccn1 [SC-144, 4-(3-cyclopropyl-1-((3,3-difluorocyclobutyl)methyl)-4-(trifluoromethyl)-1H-pyrazole-5-carboxamido)picolinamide] | ≤ 100
CS(=O)(=O)c1cc(NC(=O)c2c(C(F)(F)F)c(C3CC3)nn2CC2CC(F)(F)C2)ccn1 [SC-151, 3-cyclopropyl-1-((3,3-difluorocyclobutyl)methyl)-N-(2-(methylsulfonyl)pyridin-4-yl)-4-(trifluoromethyl)-1H-pyrazole-5-carboxamide] | ≤ 100
